Values joined by “and” are separate entries in the source; they are usually repeats but may differ in a detail not shown here. Identical values can stand only once.
How the values were obtained:
[1] = test system: penicillin hypersensitivity (patients); assay: Comparison of skin tests with penicilloyl-poly-L-lysine and penicillin G (Table III); format: in vivo, human; conditions: 1163 tested
Method: One of the uses for the conjugates of this invention is in skin testing for penicillin hypersensitivity. The conjugated compositions are prepared for skin testing by first dissolving the composition in buffered isotonic solutions, having a pH in the range from 7 to 8. For example, the conjugates prepared above may be diluted with aqueous solutions 0.15 M NaCl in 0.01 M phosphate, pH 7.6. In addition, other physiological salt solutions may be used.
Intradermal injections may be made of the foregoing solutions with a 26 guage needle, the volume injected may be generally about 0.01 to 0.03 cc. Alternatively, the conjugate may be applied by the scratch test technique. The development of a wheal at the injection site after about 20 minutes indicates a positive reaction, and penicillin hypersensitivity.
Penicillin hypersensitivity tests carried out with the conjugate compositions of this invention reflect the numerous advantages of penicillin hypersensitivity determinations made with such compositions. […] In Table II the distribution of skin reactions is shown by history of penicillin therapy and hypersensitivity. […] (See column 2, for example, showing the percentages of patients tested who had […] skin test.)

[2] = test system: penicillin hypersensitivity (patients); assay: Clinical evaluation by 26 investigators: scratch/intradermal skin tests with PPL and Penicillin G (Tables IV-VII, IX-XI); format: in vivo, human; conditions: for TOTAL (+) No. / TOTAL (+) Percent of total positive: skin reactive penicillin allergy patients
Method: Twenty-six clinical investigators contributed a total of 1160 cases to the evaluation. Patients were tested according to a protocol as follows:
1. All patients being subjected to allergy investigation were to be tested for penicillin hypersensitivity. Two preparations were to be used. These are:
2. Penicillin G (Benzyl Penicillin) in a concentration of 10,000 units per cc.
For maximum safety, it was recommended that the tests first be done by the scratch technique. Intradermal tests were then to be done on those showing negative scratch tests. In cases where the penicillin sensitivity was suspected to be of a violent character, more dilute reagents were recommended at the discretion of the individual investigator.
A uniform technique was recommended for the performance of the intradermal tests. Only a minimal amount of testing reagent was to be injected so as to make a barely discernible intradermal bleb. The amount necessary for this injection is about 0.01 to 0.03 cc. It was recognized that the intrepretation of the test results is an important matter. The reactions were to be recorded in terms of (1) the time required for the appearance of a reaction, (2) the size of erythema and (3) the size of whealing. These were to be recorded as actual measurements. Some objective measurement of dermographism was also to be recorded.
It was also contemplated that all patients who were to be treated with penicillin be tested as recommended above, even though they had previously received penicillin with impunity.
A comprehensive clinical history was takan on each patient with particular regard to previous penicillin therapy, and reaction.
In order to properly analyze the data on such a large number of patients, a data processing system was utilized.
Table IV summarizes the skin test results on all patients, without regard to other specific factors. […] It will also be noted that a significant number of patients reacted only to PPL, and another group only to Pen G. Therefore, to detect the maximum number of reactors, both test reagents would be required. A technical problem was classification of the ambiguous or borderline reactors, particularly those showing only erythema. Attempts to correlate the appearance of the erythematous flare without wheal formation with a history of penicillin hypersensitivity were unsuccessful. In some instances, however, erythema without wheal did appear to be associated with hypersensitivity to the antibiotic. The time of development of erythema without wheal varied widely from a few minutes to more than 7 days which also made its importance questionable. as a diagnostic sign. For these reasons erythema alone responses were counted with the negatives. In some instances, however, data will be presented in which erythema without wheal are counted as positive responses (figures appearing in parentheses).

[3] = Group I (675 patients): penicillin Rx, no hypersensitivity, erythema only counted as negative
[4] = Group I (675 patients): penicillin Rx, no hypersensitivity, parentheses: erythema only (ambiguous) counted as positive
[5] = Group II (352 patients): penicillin Rx & hypersensitive, erythema only counted as negative
[6] = Group II (352 patients): penicillin Rx & hypersensitive, parentheses: erythema only (ambiguous) counted as positive
[7] = Group III (70 patients): no penicillin Rx in past, erythema only counted as negative
[8] = Group III (70 patients): no penicillin Rx in past, parentheses: erythema only (ambiguous) counted as positive
[9] = Group IV (56 patients): no data, erythema only counted as negative
[10] = Group IV (56 patients): no data, parentheses: erythema only (ambiguous) counted as positive
[11] = TOTALS (1153 patients), erythema only counted as negative
[12] = TOTALS (1153 patients), parentheses: erythema only (ambiguous) counted as positive
[13] = TOTALS, all patients (1153 tested), erythema only counted as negative
[14] = TOTALS, all patients (1153 tested), parentheses: erythema only (ambiguous) counted as positive
[15] = history of therapy: Multi Courses (177 tested)
[16] = history of therapy: One Course (249 tested)
[17] = history of therapy: One Dose (152 tested)
[18] = history of therapy: TOTALS (578 tested)
[19] = reason for testing: "Penicillin" (240 tested)
[20] = reason for testing: Other Substances (463 tested)
[21] = reaction between 30 minutes and 24 hours post therapy, erythema only counted as negative
[22] = reaction between 30 minutes and 24 hours post therapy, parentheses: erythema only (ambiguous) counted as positive
[23] = reaction more than 24 hours post therapy, erythema only counted as negative
[24] = reaction more than 24 hours post therapy, parentheses: erythema only (ambiguous) counted as positive
[25] = reaction within 30 minutes post therapy, erythema only counted as negative
[26] = reaction within 30 minutes post therapy, parentheses: erythema only (ambiguous) counted as positive
[27] = type of hypersensitivity reaction: Skin (309 tested)
[28] = type of hypersensitivity reaction: Visceral (43 tested)

CC1(C)S[C@@H]2[C@H](NC(=O)Cc3ccccc3)C(=O)N2[C@H]1C(=O)O [PG, Benzyl Penicillin, reference compound]
POSITIVE SKIN TESTS % [1]: 14.3%
Positive Skin Tests, Number of Patients [1]: 166
Skin Test (+) No. [2, 3]: 24
Skin Test (+) Percent [2, 3]: 3.6%
Skin Test (-) No. [2, 3]: 651
Skin Test (-) Percent [2, 3]: 96.4%
Skin Test (+) No. [2, 4]: 56
Skin Test (+) Percent [2, 4]: 8.3%
Skin Test (-) No. [2, 4]: 619
Skin Test (-) Percent [2, 4]: 91.7%
Skin Test (+) No. [2, 5]: 47
Skin Test (+) Percent [2, 5]: 13.4%
Skin Test (-) No. [2, 5]: 305
Skin Test (-) Percent [2, 5]: 86.6%
Skin Test (+) No. [2, 6]: 65
Skin Test (+) Percent [2, 6]: 18.5%
Skin Test (-) No. [2, 6]: 287
Skin Test (-) Percent [2, 6]: 81.5%
Skin Test (-) No. [2, 7]: 70
Skin Test (-) Percent [2, 7]: 100.0%
Skin Test (+) No. [2, 8]: 5
Skin Test (+) Percent [2, 8]: 7.1%
Skin Test (-) No. [2, 8]: 65
Skin Test (-) Percent [2, 8]: 92.9%
Skin Test (+) No. [2, 9]: 1
Skin Test (+) Percent [2, 9]: 1.8%
Skin Test (-) No. [2, 9]: 55
Skin Test (-) Percent [2, 9]: 98.2%
Skin Test (+) No. [2, 10]: 3
Skin Test (+) Percent [2, 10]: 5.3%
Skin Test (-) No. [2, 10]: 53
Skin Test (-) Percent [2, 10]: 94.6%
SKIN TEST RESPONSE No. ([2]; No reactions (675 tested)): 24
SKIN TEST RESPONSE Percent ([2]; No reactions (675 tested)): 3.6%
Skin Test (-) No. [2, 11]: 1081
Skin Test (-) Percent [2, 11]: 93.8%
Skin Test (-) No. [2, 12]: 1024
Skin Test (-) Percent [2, 12]: 88.8%
Skin Test (+) No. [2, 13]: 72
Skin Test (+) Percent [2, 13]: 6.2% and 6.3%
Skin Test (+) No. [2, 14]: 129
Skin Test (+) Percent [2, 14]: 11.2%
positive skin tests, patients positive/patients in group ([2]; delayed (after 24 hours) group): 17/144
positive skin tests, percent of group ([2]; delayed (after 24 hours) group, 144 patients): 11.8%
Skin Reactions PPL- / PEN G- No. [2, 15]: 10
Skin Reactions PPL- / PEN G- Percent [2, 15]: 5.6%
Skin Reactions PPL- / PEN G- No. [2, 16]: 8
Skin Reactions PPL- / PEN G- Percent [2, 16]: 3.2%
Skin Reactions PPL- / PEN G- No. [2, 17]: 17
Skin Reactions PPL- / PEN G- Percent [2, 17]: 11.2%
Skin Reactions PPL- / PEN G- No. [2, 18]: 35
Skin Reactions PPL- / PEN G- Percent [2, 18]: 6.1%
positive skin tests, patients positive/patients in group ([2]; immediate reacting group (within 30 minutes)): 17/56
positive skin tests, percent of group ([2]; immediate reacting group (within 30 minutes), 56 patients): 30.4%
percent of skin-test positive patients that would be missed if only this reagent were used as skin test antigen ([2]; immediate reactor group): 45%
Skin Test (+) No. [2, 19]: 24
Skin Test (+) Percent [2, 19]: 10.0%
Skin Test (+) No. [2, 20]: 9
Skin Test (+) Percent [2, 20]: 1.9%
safety of skin testing ([2]; scratch and intradermal skin testing of patients): safe
TOTAL (+) No. [2, 21]: 17
TOTAL (+) Percent of total positive [2, 21]: 65.4%
TOTAL (+) No. [2, 22]: 21
TOTAL (+) Percent of total positive [2, 22]: 67.7%
TOTAL (+) No. [2, 23]: 17
TOTAL (+) Percent of total positive [2, 23]: 51.5%
TOTAL (+) Percent of total positive ([2]; reaction more than 24 hours post therapy, erythema only counted as negative, listed as Penicillin G): ≤ 51.5%
TOTAL (+) No. [2, 24]: 22
TOTAL (+) Percent of total positive [2, 24]: 50.0%
TOTAL (+) No. [2, 25]: 17
TOTAL (+) Percent of total positive [2, 25]: 54.8%
TOTAL (+) Percent of total positive ([2]; reaction within 30 minutes post therapy, erythema only counted as negative, listed as Pen G): 55%
TOTAL (+) Percent of total positive ([2]; reaction within 30 minutes post therapy, erythema only counted as negative, listed as Penicillin G): 54.8%
TOTAL (+) No. [2, 26]: 17
TOTAL (+) Percent of total positive [2, 26]: 47.2%
SKIN TEST RESPONSE No. [2, 27]: 39
SKIN TEST RESPONSE Percent [2, 27]: 12.6%
SKIN TEST RESPONSE No. [2, 28]: 14
SKIN TEST RESPONSE Percent [2, 28]: 32.6%

From US3979508A, “Compositions and methods therewith for penicillin hypersensitivity detection” (Kremers-Urban Company, priority 1975, dated 1976)
